Measurements from paper PMC9667546, “Selective Inhibition of Bruton’s Tyrosine Kinase by a Designed Covalent Ligand Leads to Potent Therapeutic Efficacy in Blood Cancers Relative to Clinically Used Inhibitors” (ACS Pharmacology & Translational Science, 2022).
Several values for one entry are separate records, joined by “and”; a condition that tells them apart may be missing. Equal values may be shown once.

How the values were obtained:
BMX = molecular target: T1, BMX (Homo sapiens, UniProt P51813); assay: NanoBRET in-cell target engagement, BMX; type: binding
T1 construct: host or cells: HEK296T (so in the source)
T1 sequence (P51813 1-675): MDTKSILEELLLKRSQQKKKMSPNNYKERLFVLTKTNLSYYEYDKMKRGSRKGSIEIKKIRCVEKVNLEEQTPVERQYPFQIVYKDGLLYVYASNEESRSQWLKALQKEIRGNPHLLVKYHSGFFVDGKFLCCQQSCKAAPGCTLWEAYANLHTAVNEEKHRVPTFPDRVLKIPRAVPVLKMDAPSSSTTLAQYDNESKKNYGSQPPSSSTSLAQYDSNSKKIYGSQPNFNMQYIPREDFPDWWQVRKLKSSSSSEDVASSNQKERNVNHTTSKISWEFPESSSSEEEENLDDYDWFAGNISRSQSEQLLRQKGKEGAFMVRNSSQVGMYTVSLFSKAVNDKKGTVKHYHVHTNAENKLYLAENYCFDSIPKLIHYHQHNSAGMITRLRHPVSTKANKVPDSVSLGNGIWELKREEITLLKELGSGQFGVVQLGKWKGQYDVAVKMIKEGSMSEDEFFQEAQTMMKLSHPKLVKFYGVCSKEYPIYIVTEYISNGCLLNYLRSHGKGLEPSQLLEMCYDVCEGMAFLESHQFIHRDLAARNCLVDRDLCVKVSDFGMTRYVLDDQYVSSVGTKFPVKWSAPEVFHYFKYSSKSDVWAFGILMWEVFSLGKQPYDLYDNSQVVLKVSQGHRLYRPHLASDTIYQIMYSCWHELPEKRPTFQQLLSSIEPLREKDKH
Description: (§1) In-cell target engagement was performed at Reaction Biology Corporation, using NanoBRET technology. Very briefly, HEK296T cells were transfected and treated in duplicate with JS25 for 1 h of incubation. The compound was diluted 10 times with 3-fold dilution, starting at 1 μM. Curve fits were performed only when the % NanoBret signal at the highest concentration of compounds was less than 55%. The IC50 values were determined using GraphPad Prism 8 ([…]).

TEC = molecular target: T2, TEC (Homo sapiens, UniProt P42680); assay: NanoBRET in-cell target engagement, TEC; type: binding
T2 construct: host or cells: HEK296T (so in the source)
T2 sequence (P42680 1-631): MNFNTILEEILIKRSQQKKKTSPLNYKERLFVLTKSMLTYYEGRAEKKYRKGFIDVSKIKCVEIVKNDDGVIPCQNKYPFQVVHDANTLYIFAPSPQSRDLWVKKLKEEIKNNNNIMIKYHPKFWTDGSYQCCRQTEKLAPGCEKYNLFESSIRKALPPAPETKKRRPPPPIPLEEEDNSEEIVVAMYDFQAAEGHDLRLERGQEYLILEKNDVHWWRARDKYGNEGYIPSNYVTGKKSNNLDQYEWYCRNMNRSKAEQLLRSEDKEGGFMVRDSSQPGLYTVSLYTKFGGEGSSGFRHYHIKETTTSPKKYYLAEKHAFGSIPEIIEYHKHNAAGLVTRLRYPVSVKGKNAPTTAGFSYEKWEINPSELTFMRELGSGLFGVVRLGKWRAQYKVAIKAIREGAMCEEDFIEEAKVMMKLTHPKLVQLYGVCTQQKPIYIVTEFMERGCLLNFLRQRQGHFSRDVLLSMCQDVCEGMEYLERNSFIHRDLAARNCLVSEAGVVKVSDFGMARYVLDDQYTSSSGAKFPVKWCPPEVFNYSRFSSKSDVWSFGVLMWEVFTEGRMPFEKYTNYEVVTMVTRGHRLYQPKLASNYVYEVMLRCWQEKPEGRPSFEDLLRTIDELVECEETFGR
Description: as §1

ITK = molecular target: T3, ITK (Homo sapiens, UniProt Q08881); assay: NanoBRET in-cell target engagement, ITK; type: binding
T3 construct: host or cells: HEK296T (so in the source)
T3 sequence (Q08881 1-620): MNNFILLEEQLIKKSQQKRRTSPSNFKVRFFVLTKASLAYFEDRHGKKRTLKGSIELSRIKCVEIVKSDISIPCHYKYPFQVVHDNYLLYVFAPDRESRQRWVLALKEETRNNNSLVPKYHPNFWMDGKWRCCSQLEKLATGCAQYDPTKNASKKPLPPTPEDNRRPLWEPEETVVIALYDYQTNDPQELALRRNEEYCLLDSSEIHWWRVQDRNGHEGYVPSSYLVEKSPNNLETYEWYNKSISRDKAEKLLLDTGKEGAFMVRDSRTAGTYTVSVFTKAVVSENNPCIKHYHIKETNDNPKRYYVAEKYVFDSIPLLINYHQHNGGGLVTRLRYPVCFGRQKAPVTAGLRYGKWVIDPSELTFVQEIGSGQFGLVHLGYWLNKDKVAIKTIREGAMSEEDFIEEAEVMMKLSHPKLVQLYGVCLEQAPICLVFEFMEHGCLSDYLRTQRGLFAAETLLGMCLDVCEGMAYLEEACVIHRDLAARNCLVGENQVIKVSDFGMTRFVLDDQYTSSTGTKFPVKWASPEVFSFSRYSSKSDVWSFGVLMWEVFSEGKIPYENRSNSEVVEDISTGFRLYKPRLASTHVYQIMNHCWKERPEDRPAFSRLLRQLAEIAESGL
Description: as §1

Raji cells = assay: Mice xenograft model of Burkitt’s lymphoma (subcutaneous Raji cells); type: in vivo; conditions: for Metastasis volume, Brain, Average / Metastasis volume, Liver, Average / Metastasis volume, Lung, Average / Metastasis volume, Spinal, Average / Secondary tumour, Average: average of 5 animals, stereological analysis; for Metastasis volume, Brain, single animals / Metastasis volume, Liver, single animals / Metastasis volume, Lung, single animals / Metastasis volume, Spinal, single animals / Secondary tumour, single animals: individual animals #1 to #5 in order
Description: Female adult BALB/c/NSG mice were injected subcutaneously with 1 × 10^6 Raji cells, in a 1:1 solution of Matrigel Matrix (Corning) to create solid tumors. When tumors reached 180 mm^3 on average, mice were randomized into four groups (n = 6/group), and dosing began every 2 days. […] Tumor size and body weight were monitored periodically for 12 days. At the end of the experiment, mice necropsies were performed. Stereological analysis was conducted by the Histopathology Unit at Instituto Gulbenkian de Ciência and by the Comparative Pathology Unit at Instituto de Medicina Molecular João Lobo Antunes. Quantification of metastases and cell necrosis was performed in all groups (n = 5/group). Statistical analysis was conducted using one-way ANOVA. The Dunnet test was used to analyze the statistical significance between the treatment groups and the control.

primary DLBCL samples = assay: Ex vivo model of diffuse large B-cell lymphoma (Pharmacoscopy, drug response score); type: cell-based, human; conditions: 72 h, 4-point dose–response from 10 μM
[1] = HEK296T cells, 1 h incubation, average of duplicates

## C=CC(=O)Nc1cc(C)cc(-n2c(=O)ccc3cnc4ccc(-c5ccc(NS(C)(=O)=O)cc5)cc4c32)c1 [JS25]
BMX
  selectivity toward BTK relative to BMX: ~2 fold
BMX; [1]
  IC50: 49 nM
BMX; IC50 kinase/IC50 BTK
  selectivity (kinase/BTK), BMX: 1.7
TEC
  selectivity for BTK relative to TEC: ~8 fold
TEC; [1]
  IC50: 220 nM
TEC; IC50 kinase/IC50 BTK
  selectivity (kinase/BTK), TEC: 7.7
ITK
  selectivity for BTK relative to ITK: 15 fold
ITK; [1]
  IC50: 440 nM
ITK; IC50 kinase/IC50 BTK
  selectivity (kinase/BTK), ITK: 15.4
Raji cells; 10 mg/kg
  Metastasis volume, Brain, Average: 1.13 mm³
  Metastasis volume, Liver, Average: 27.34 mm³
  Metastasis volume, Lung, Average: 26.04 mm³
  Metastasis volume, Spinal, Average: 87.31 mm³
  Secondary tumour, Average: 16.88 mm³
  Metastasis volume, Brain, single animals: 0.92 mm³ and 0.98 mm³ and 2.33 mm³ and 0.15 mm³ and 1.27 mm³
  Metastasis volume, Liver, single animals: 0.00 mm³ (2×) and 9.94 mm³ and 83.71 mm³ and 43.05 mm³
  Metastasis volume, Lung, single animals: 0.00 mm³ (4×) and 130.18 mm³
  Metastasis volume, Spinal, single animals: 18.31 mm³ and 109.42 mm³ and 122.01 mm³ and 88.70 mm³ and 98.09 mm³
  Secondary tumour, single animals: 0.00 mm³ (4×) and 84.38 mm³
Raji cells; 20 mg/kg i.p. every 2 days, n = 5/group
  reduction in percentage of metastases: 70%
Raji cells; 20 mg/kg
  Metastasis volume, Brain, Average: 0.26 mm³
  Metastasis volume, Liver, Average: 1.34 mm³
  Metastasis volume, Lung, Average: 0.00 mm³
  Metastasis volume, Spinal, Average: 27.10 mm³
  Secondary tumour, Average: 37.98 mm³
  Metastasis volume, Brain, single animals: 0.44 mm³ and 0.03 mm³ and 0.82 mm³ and 0.00 mm³ (2×)
  Metastasis volume, Liver, single animals: 0.00 mm³ and 2.00 mm³ and 3.35 mm³ and 0.64 mm³ and 0.70 mm³
  Metastasis volume, Lung, single animals: 0.00 mm³
  Metastasis volume, Spinal, single animals: 36.97 mm³ and 12.59 mm³ and 70.62 mm³ and 14.65 mm³ and 0.69 mm³
  Secondary tumour, single animals: 0.00 mm³ and 91.12 mm³ and 86.92 mm³ and 8.82 mm³ and 3.06 mm³
Raji cells; JS25 10 and 20 mg/kg i.p. every 2 days, n = 5/group
  reduction in secondary tumor formation: 71–88%
Raji cells; JS25 10 and 20 mg/kg i.p. every 2 days, relative to control
  reduction in solid (subcutaneous) tumor size: 30–40%
Primary DLBCL samples; 11 patients
  patients with off-target or nonspecific killing (DRS < 0): ~36%
Primary DLBCL samples; JS25 11 patients, ibrutinib 10 patients
  patients with “on-target” effect (DRS > 0): 64%
